Reference: patent US11345716B2, “Nitrogen-containing condensed ring compounds having dopamine D3 antagonistic effect” (Shionogi & Co., Ltd., priority 2016, dated 2022)

Tests used:
impulsivity in rat = assay: Effect of suppressing impulsivity in rat (T-maze delayed large reward, i.p.); format: in vivo; conditions: 3 mg/kg, total 50 trials of 5 days, versus vehicle control group
Source text: Test Example 3-1: Effect of Suppressing Impulsivity in Rat
Male Crl: WI rats were obtained at post-natal day 14 and weaning was occurred at post-natal day 21. Starting from then, the rats were housed 2-3 per cage and food-restricted (Day 1). The feeding amount was 5 g/day at post-natal day 21-28 (Day 1-8), 8.5 g/day at post-natal day 29-32 (Day 9-12), and 10 g/day at post-natal day 33-36 (Day 13-16), preventing their body weight from being 60% or less of the weight of the free feeding rats.
4 days after the beginning of the food restriction (Day 5), pellets were put on goal boxes located in the left-side and the right-side of T-maze. Then, the rats were allowed to freely explore the T-maze-box for 5 min to get habituated to the T-maze box and learn that the pellets were put on the goal boxes located in the left-side and the right-side. For 4 consecutive days from the next day (Day 6-9), one pellet (20 mg×1) was put in one side of the goal box as a small reward, and 5 pellets (20 mg×5) were put in the other side of the goal box as a large reward, and the rats were trained to learn their positions. Each rat underwent 10-trial per day trainings. […] The evaluations of the drug efficacy were started on Day 12. […]

[1] = target: human recombinant dopamine D2 receptor (Homo sapiens (Human), UniProt P14416); assay: Test of binding inhibition for the human dopamine D2 receptor (SPA, [3H]-Metylspiperone); conditions: Jump-In HEK cell membranes, 1.2 nM [3H]-Metylspiperone, 120 min at 25° C.; read-out: hD2_Ki
Protocol: Test Example 1: Test of Binding Inhibition for the Human Dopamine D2 Receptor
Cell membranes: Jump-In HEK cell membranes expressing human recombinant dopamine D2 receptor (2 μg/well)
Buffer solution: 50 mM Tris-HCl (35409-45, Nacalai Tesque) (pH 7.4) containing 120 mM NaCl (31320-05, Nacalai Tesque), 1 mM MgCl2.6H2O (20909-55, Nacalai Tesque). 5 mM KCl (28514-75, Nacalai Tesque) and 2 mM CaCl2 (067-31, Nacalai Chemical, Ltd)
Radioligand: (final concentration) 1.2 nM [^3H]-Metylspiperone ([^3H—N-methyl-]-Metylspiperone, NET-856, 83.8 Ci/mmol, PerkinElmer)
(§1) Non-specific ligand: (final concentration) 10 μM Butaclamol [(+)-Butaclamol Hydrochloride, D033, Sigma]
(§2) SPA beads: SPA beads [WGA PVT SPA Scintillation Beads, RPNQ0001 (500 mg), RPNQ0060 (2 g), PerkinElmer] (0.2 mg/well)
(§3) Incubation time and temperature: 120 min at 25° C.
(§4) Butaclamol or the compounds of the present invention were weighed and DMSO was added to make a 10 mM solution. This solution was diluted to each concentration.
[^3H]-Metylspiperone was weighed and the buffer solution was added to make a 3.6 nM solution.
SPA beads were weighed and stirred in water to moke a 50 mg/mL solution. Using this solution, a mixed solution with the cell membranes was prepared.
225 nL of the solutions of the non-specific ligand or the compounds of the present invention at each concentration (in case of vehicle, final concentration 0.3% DMSO) were added in each well of a 384-well white/clear bottom microplate (3706, Corning). Jump-In HEK Cell membranes (final reaction amount: 2 μg protein/well), SPA beads (final reaction amount: 0.2 mg/well) and the buffer were mixed and the mixed solution was left still for more than or equal to 1 h at 4° C. Then, 50 μL of the mixture was added to each well of the plate. In addition, 25 μL of 3.6 nM [^3H]-Metylspiperone (final concentration: 1.2 nM) was added to each well. The plate was sealed by putting TopSeal-A 96/384 well (6050185, PerkinElmer) on the top of the plate, mixed using stirring deaerator (Welltornado, FK-62, Sakaki) and incubated for 120 min at 25° C. After incubation, the radioactivity of [^3H]-Metylspiperone which was binded to D2 receptor was determined by liquid scintillation counter (1450 Microbeta, PerkinElmer) in each well. Non-specific binding was calculated based on the radioactivity of [^3H]-Metylspiperone in the presence of 10 μM non-labeled Butaclamol. The total binding was calculated using the radioactivity of [^3H]-Metylspiperone in the absence of the compounds of the present invention (Vehicle). The Ki values were calculated from dose-response curves.
Binding activities of the compounds of the present invention were calculated from the following Binding Inhibition Rate (%): Inhibition Rate (%)=[1−(c−a)(b−a)]×100(%) • a: Average cpm of non-specific binding • b: Average cpm of total binding • c: Cpm in the presence of each test compound

[2] = target: human recombinant dopamine D3 receptor (Homo sapiens (Human), UniProt P35462); assay: Test of binding inhibition for the human dopamine D3 receptor (SPA, [3H]-Metylspiperone); conditions: Jump-In HEK cell membranes, 2 nM [3H]-Metylspiperone, 120 min at 25° C.; read-out: hD3_Ki
Protocol: Cell membranes: Jump-In HEK cell membranes expressing human recombinant dopamine D3 receptor (4 μg/well)
as §1, §2, §3, §4
[^3H]-Metylspiperone was weighed and the buffer solution was added to make a 6 nM solution.
SPA beads were weighed and stirred in water to make a 50 mg/mL solution. Using this solution, a mixed solution with the cell membranes was prepared.
Jump-In HEK Cell membranes (final reaction amount: 4 μg/well), SPA beads (final reaction amount: 0.2 mg/well) and Tris-HCl buffer were mixed and the mixed solution was left still for more than 60 min at 4° C. Then, 50 μL of the mixture was added to each well of the plate. In addition, 25 μL of 6 nM [^3H]-Metylspiperone (final concentration: 2 nM) was added to each well. […] Non-specific binding was calculated based on the radioactivity of [^3II]-Metylspiperone in the presence of 10 μM non-labeled Butaclamol. The total binding was calculated based on the radioactivity of [^3H]-Metylspiperone in the absence of the compounds of the present invention (Vehicle). The Ki values were calculated from dose-response curves.
Binding activities of the compounds of the present invention were calculated from the following Binding Inhibition Rate (%): Inhibition Rate (%)=[1−(c−a)(b−a)]*100(%) • a: Average cpm of non-specific binding • b: Average cpm of total binding • c: Cpm in the presence of each test compound

Chain of human recombinant dopamine D3 receptor (P35462 whole entry): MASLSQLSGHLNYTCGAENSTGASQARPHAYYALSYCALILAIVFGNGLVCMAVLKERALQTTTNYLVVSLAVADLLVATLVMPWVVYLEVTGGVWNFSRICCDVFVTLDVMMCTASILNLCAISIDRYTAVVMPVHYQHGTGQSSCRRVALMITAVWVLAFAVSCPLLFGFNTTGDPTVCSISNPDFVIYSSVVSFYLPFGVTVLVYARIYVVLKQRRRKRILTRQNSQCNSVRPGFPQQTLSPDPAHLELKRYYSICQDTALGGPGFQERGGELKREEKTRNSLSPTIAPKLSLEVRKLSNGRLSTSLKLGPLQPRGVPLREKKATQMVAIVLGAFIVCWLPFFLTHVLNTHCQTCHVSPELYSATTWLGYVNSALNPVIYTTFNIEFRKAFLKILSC
Chain of human recombinant dopamine D2 receptor (P14416 whole entry): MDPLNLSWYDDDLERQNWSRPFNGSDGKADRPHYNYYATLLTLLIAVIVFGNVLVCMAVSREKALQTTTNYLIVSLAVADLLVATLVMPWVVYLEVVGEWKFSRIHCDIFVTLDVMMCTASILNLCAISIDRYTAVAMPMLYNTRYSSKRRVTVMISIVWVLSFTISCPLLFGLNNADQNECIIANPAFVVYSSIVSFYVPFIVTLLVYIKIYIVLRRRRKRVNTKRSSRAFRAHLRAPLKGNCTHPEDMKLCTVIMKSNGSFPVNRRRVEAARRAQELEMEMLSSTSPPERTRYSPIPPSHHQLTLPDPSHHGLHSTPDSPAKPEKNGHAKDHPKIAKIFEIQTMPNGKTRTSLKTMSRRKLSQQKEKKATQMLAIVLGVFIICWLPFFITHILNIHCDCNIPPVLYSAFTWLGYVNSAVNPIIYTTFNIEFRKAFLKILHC

SMILES	number of choices for the large reward (impulsivity in rat)	Ki [1]	Ki [2]
O=C(N[C@H]1CC[C@H](CCN2CCc3sc(OCC(F)F)nc3C2)CC1)c1cccc2ncccc12 [Compound I-085]	significantly increased	–	–
Cc1cc(CC(=O)N[C@H]2CC[C@H](CCN3CCc4sc(N5CC(F)(F)C5)nc4C3)CC2)on1 [Compound I-098]	–	1600 nM	0.12 nM
COc1cc(CCC(=O)N[C@H]2CC[C@H](CCN3CCc4ccc(OCC(F)F)nc4CC3)CC2)on1 [II-041]	–	290 nM	0.058 nM
Cc1cn2c(C(=O)N[C@H]3CC[C@H](CCN4CCc5ccc(OCC(F)F)nc5CC4)CC3)cccc2n1 [II-057]	–	> 1700 nM	0.014 nM
Cc1ncc(CC(=O)N[C@H]2CC[C@H](CCN3CCc4cnc(OCC(F)F)nc4CC3)CC2)s1 [II-062]	–	> 1700 nM	1.1 nM
Cc1ncc(CC(=O)N[C@H]2CC[C@H](CCN3CCc4cc(C)c(OCC(F)F)nc4CC3)CC2)s1 [III-008]	–	480 nM	0.25 nM
